Key:
[1] = test system: VanA VRE (E. faecalis BM 4166 and E. faecium ATCC BAA-2317); assay: Cell wall permeability assay (propidium iodide uptake); assay type: cell-based, Enterococcus faecalis; Enterococcus faecium; details: 10 μM compound
[2] = test system: VSSA, MRSA, VanA and VanB VRE; details: cited from earlier work
[3] = test system: vancomycin-resistant Enterococcus faecalis (VanA VRE, BM4166); details: BM 4166; previously reported data; cited from earlier work
[4] = test system: Enterococcus faecium (VanA VRE, ATCC BAA-2317); details: previously reported data; cited from earlier work
[5] = test system: VanA VRE (E. faecalis BM 4166 and E. faecium ATCC BAA-2317); assay: Cell wall biosynthesis inhibition assay (accumulation of UDPMurNAc-pp 19); assay type: cell-based, Enterococcus faecalis; Enterococcus faecium; details: 35 μg/mL, tetracycline pretreated VanA VRE, 30 minutes, 37° C.
From the text: The inhibition of bacterial cell wall synthesis was established in an assay that quantitates the accumulation of the peptidoglycan precursor UDP-N-acetyl-muramyl-depsipentapeptide (Compound 19, UDPMurNAc-pp), resulting from inhibited cell wall incorporation following antibiotic treatment. […] This procedure was reduced in scale and modified to enlist reverse-phase HPLC separation, UV detection, and calibration curve determination of the amount of isolated 19, permitting use with limited sample sizes. A larger scale isolation and full characterization of 19 provided the material needed to establish a linear calibration curve.
The bacterial suspension was heated at 100° C. for 15 minutes to release cytosolic 19. The entire supernatant was analyzed by semi-preparative reverse-phase HPLC with a single injection and the amount of 19 was quantitated with use of the calibration curve.
Cultures of vancomycin-resistant Enterococcus faecalis (VanA VRE, BM4166) and Enterococcus faecium (VanA VRE, ATCC BAA-2317) were inoculated and grown in an orbital shaker at 37° C. in 100% brain-heart infusion broth for 12 hours. The above bacterial solution was subjected to a subculture to obtain fresh mid-log phase bacterial cells (total volume of bacterial suspension=5 mL, incubation time=6 hours, OD600=0.6). […] Vancomycin analogues were added and the mixture was incubated at 37° C. for a further 30 minutes.
After the bacteria were harvested (3000 rpm, 4° C., 20 minutes), this bacterial precipitate was washed and resuspended in 5 mM glucose and 5 mM HEPES buffer (500 μL, 1:1, pH=7.2). This bacterial suspension was heated at 100° C. for 15 minutes and centrifuged (13000 rpm, 25° C., 10 minutes). […] [*****Allen et al., Antimicrob. Agents Chemother. 1996, 40(10):2356-2362]; Liu et al., J. Am. Chem. Soc. 2001, 123:9916-9917.] The amount of UDP Mur N-Ac pentapeptide (19) was quantified by use of calibration curves for E. faecalis BM4166, and for E. faecium ATCC BAA-2317 based on the area under the curve (AUC).

[6] = test system: vancomycin-resistant Enterococcus faecalis (VanB VRE, strain ATCC 51299); details: previously reported data; cited from earlier work
[7] = test system: vancomycin-sensitive Staphylococcus aureus (VSSA strain ATCC 25923); details: previously reported data; cited from earlier work
[8] = test system: methicillin and oxacillin-resistant Staphylococcus aureus subsp. aureus (MRSA strain ATCC 43300); details: previously reported data; cited from earlier work

SMILES: CN[C@H](CC(C)C)C(=O)N[C@H]1C(=O)N[C@@H](CC(N)=O)C(=O)N[C@H]2C(=S)N[C@@H]3C(=O)N[C@H](C(=O)N[C@H](C(=O)O)c4cc(O)cc(O)c4-c4cc3ccc4O)[C@H](O)c3ccc(c(Cl)c3)Oc3cc2cc(c3OC2OC(CO)C(O)[C@H](O)[C@@H]2O[C@H]2CC(C)(NCc3ccc(-c4ccc(Cl)cc4)cc3)[C@H](O)[C@H](C)O2)Oc2ccc(cc2Cl)[C@H]1O (some centres unmarked) [Compound 6]
- induced cell membrane permeability (propidium uptake) [1]: Neither compound significantly impacts membrane permeability
- MICs (range over panel) [2]: 2 to 4 µg/mL
- Antimicrobial Activity, MIC, VanA E. faecalis [3]: 4 µg/mL
- Antimicrobial Activity, MIC, VanA E. faecium [4]: 4 µg/mL
- inhibition of bacterial cell wall synthesis (accumulation of 19) [5]: inhibit cell wall biosynthesis to a similar extent
- Antimicrobial Activity, MIC, VanB E. faecalis [6]: 2 µg/mL
- Antimicrobial Activity, MIC, sensitive S. aureus [7]: 2 µg/mL
- Antimicrobial Activity, MIC, MRSA S. aureus [8]: 2 µg/mL
